In ChEMBL document CHEMBL5143689, “In silico, synthesis and anticancer evaluation of benzamide tryptamine derivatives as novel eEF2K inhibitors” (Bioorg Med Chem Lett, 2022) one finds IC50, inhibition and Activity data, which are given here for 15 compounds.

Activity calls are given as the source filed them. The rule behind the calls is not given here.

One may read the IC50 as the concentration needed to halve the response being measured.

For experiment [1], the target named is T1, Eukaryotic elongation factor 2 kinase (Homo sapiens, UniProt O00418).
T1 sequence (O00418 whole entry): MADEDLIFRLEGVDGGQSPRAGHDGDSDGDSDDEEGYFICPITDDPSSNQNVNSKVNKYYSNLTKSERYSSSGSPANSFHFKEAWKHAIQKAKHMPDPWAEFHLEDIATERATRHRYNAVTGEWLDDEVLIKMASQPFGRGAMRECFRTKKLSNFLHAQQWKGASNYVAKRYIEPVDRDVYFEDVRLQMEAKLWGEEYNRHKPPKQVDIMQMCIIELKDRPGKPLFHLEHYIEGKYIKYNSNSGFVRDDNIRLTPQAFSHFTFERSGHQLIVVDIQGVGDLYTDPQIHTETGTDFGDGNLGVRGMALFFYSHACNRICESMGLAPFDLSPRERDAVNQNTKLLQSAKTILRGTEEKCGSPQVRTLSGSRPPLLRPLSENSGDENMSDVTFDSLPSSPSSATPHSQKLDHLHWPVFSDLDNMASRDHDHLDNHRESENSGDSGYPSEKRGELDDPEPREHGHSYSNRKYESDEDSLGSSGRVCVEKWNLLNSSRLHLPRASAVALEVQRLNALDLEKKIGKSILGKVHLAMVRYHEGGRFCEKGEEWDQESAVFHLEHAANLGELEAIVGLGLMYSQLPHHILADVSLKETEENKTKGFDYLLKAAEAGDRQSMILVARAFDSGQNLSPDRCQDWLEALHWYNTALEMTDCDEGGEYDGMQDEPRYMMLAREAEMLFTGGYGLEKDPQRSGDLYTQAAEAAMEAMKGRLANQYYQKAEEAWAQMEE
The experiment is described as follows: Inhibition of eEF2K (unknown origin).

Experiment [2] concerns U-937. Put plainly: Antiproliferative activity against human U-937 cells assessed as inhibition of cell viability measured after 48 hrs by MTT assay. It counts as functional, cell-based. Conditions: U-937, 48 h. (In general: Tetrazolium dyes change colour on reduction, which living cells bring about.)
In experiment [3] the test system is CCRF-CEM. The experiment is described as follows: Antiproliferative activity against human CCRF-CEM cells assessed as inhibition of cell viability measured after 48 hrs by MTT assay. It counts as functional, cell-based.
Experiment [4] relates to K562. Put plainly: Antiproliferative activity against human K562 cells assessed as inhibition of cell viability measured after 48 hrs by MTT assay. The class given is functional, cell-based. Conditions: K562, 48 h.
For experiment [5], the target named is T2, Eukaryotic elongation factor 2 kinase (Homo sapiens) (UniProt O00418).
T2 sequence (whole entry): T1 sequence (O00418 whole entry)
The experiment is described as follows: Inhibition of eEF2K in human CCRF-CEM cells assessed as decrease in phosphorylation of eEF2 at threonine 56 residue up to 16 uM measured after 48 hrs by Western blot analysis. The class given is cell-based.

For experiment [6], the system named is CCRF-CEM. Put plainly: Induction of apoptosis in human CCRF-CEM cells assessed as increase in cleaved caspase-9 level at 5 uM by Western blot analysis. The class given is functional, cell-based. The note with it: time <= 48.0 hrs, TDE = time-dependent effect.
Experiment [7] addresses T2, Eukaryotic elongation factor 2 kinase (Homo sapiens). The experiment is described as follows: Inhibition of eEF2K in human CCRF-CEM cells assessed as decrease in phosphorylation of MAPK up to 16 uM measured after 48 hrs by Western blot analysis. It counts as cell-based. (In general: A western blot detects proteins with antibodies after separation by electrophoresis.)

Experiment [8] has as its system CCRF-CEM. The experiment is described as follows: Induction of cell cycle arrest in human CCRF-CEM cells assessed as accumulation at G0/G1 phase at 2 uM incubated for 48 hrs by PI staining based flow cytometry analysis (reference value: 71.3%). It counts as functional. (In flow cytometry, cells or beads pass a laser one at a time.)
Experiment [9] relates to CCRF-CEM. Put plainly: Induction of apoptosis in human CCRF-CEM cells assessed as early apoptotic cells up to 8 uM measured after 48 hrs by AnnexinV-FITC/PI staining based flow cytometry method. It counts as functional.
Experiment [10] concerns the target T2, Eukaryotic elongation factor 2 kinase (Homo sapiens). Put plainly: Inhibition of eEF2K in human CCRF-CEM cells assessed as decrease in phosphorylation of mTOR at 5 uM measured up to 48 hrs by Western blot analysis. The class given is cell-based.
For experiment [11] the target is unchanged. Put plainly: Inhibition of eEF2K in human CCRF-CEM cells assessed as decrease in MAPK protein expression level up to 16 uM measured after 48 hrs by Western blot analysis. The class given is cell-based.
Experiment [12] relates to CCRF-CEM. Put plainly: Induction of apoptosis in human CCRF-CEM cells assessed as increase in cleaved PARP level at 5 uM by Western blot analysis. The class given is functional, cell-based. The note with it: time <= 48.0 hrs, TDE = time-dependent effect.
The target in experiment [13] is T2, Eukaryotic elongation factor 2 kinase (Homo sapiens). The experiment is described as follows: Inhibition of eEF2K in human CCRF-CEM cells assessed as decrease in phosphorylation of mTOR up to 16 uM measured after 48 hrs by Western blot analysis. It counts as cell-based.
For experiment [14] the target is unchanged. The experiment is described as follows: Inhibition of eEF2K in human CCRF-CEM cells assessed as decrease in phosphorylation of eEF2 at 5 uM measured up to 48 hrs by Western blot analysis. It counts as cell-based.
Experiment [15] concerns CCRF-CEM. Put plainly: Induction of apoptosis in human CCRF-CEM cells assessed as increase in cleaved caspase-3 level at 5 uM by Western blot analysis. The note with it: time <= 48.0 hrs, TDE = time-dependent effect. The class given is functional, cell-based.
The test system of experiment [16] is CCRF-CEM. The experiment is described as follows: Induction of cell cycle arrest in human CCRF-CEM cells assessed as accumulation at G0/G1 phase at 8 uM incubated for 48 hrs by PI/ RNaseA staining based flow cytometry analysis (reference value: 71.3%). The class given is functional.
The target of experiment [17] is T2, Eukaryotic elongation factor 2 kinase (Homo sapiens). Put plainly: Inhibition of eEF2K in human CCRF-CEM cells assessed as decrease in phosphorylation of Akt at 5 uM measured up to 48 hrs by Western blot analysis. It counts as cell-based.
Experiment [18] relates to CCRF-CEM. Put plainly: Induction of apoptosis in human CCRF-CEM cells assessed as late apoptotic cells up to 8 uM measured after 48 hrs by AnnexinV-FITC/PI staining based flow cytometry method. It counts as functional.
Experiment [19] concerns CCRF-CEM. Put plainly: Induction of apoptosis in human CCRF-CEM cells assessed as increase in cleaved caspase-8 level at 5 uM by Western blot analysis. The note with it: time <= 48.0 hrs, TDE = time-dependent effect. The class given is functional, cell-based.
In experiment [20] the test system is CCRF-CEM. Put plainly: Induction of cell cycle arrest in human CCRF-CEM cells assessed as accumulation at G0/G1 phase at 4 uM incubated for 48 hrs by PI/ RNaseA staining based flow cytometry analysis (reference value: 71.3%). It counts as functional.
Experiment [21] concerns the target T2, Eukaryotic elongation factor 2 kinase (Homo sapiens). Put plainly: Inhibition of eEF2K in human CCRF-CEM cells assessed as decrease in phosphorylation of eEF2 at threonine 58 residue up to 16 uM measured after 48 hrs by Western blot analysis. The class given is cell-based.
The target is the same in experiment [22]. Put plainly: Inhibition of eEF2K in human CCRF-CEM cells assessed as decrease in phosphorylation of Akt up to 16 uM measured after 48 hrs by Western blot analysis. It counts as cell-based.
Experiment [23] has the same target. Put plainly: Inhibition of eEF2K in human CCRF-CEM cells assessed as decrease in phosphorylation of MAPK at 5 uM measured up to 48 hrs by Western blot analysis. It counts as cell-based.

On to `Cc1ccc(C2=NC(C)(O)CC(C(C)C)[Se]2)cc1` (stereo unspecified), for which, in [1], the 50% inhibitory concentration (IC50) was 1.5 µM.

For `COc1ccc2[nH]cc(CCNCCC(=O)Nc3ccccc3)c2c1`, the IC50 in experiment [2] came out at 15.2 µM; in experiment [3] it was 9.79 µM; in experiment [4], 7.83 µM.

Take `O=C1CC(c2ccccc2)c2cccc(N3CCCC3)c21` (stereo unspecified): the concentration for half-maximal inhibition (IC50) in experiment [1] is 0.23 µM.

Consider `Nc1cc(F)ccc1NC(=O)CCNCCc1c[nH]c2ccccc12`, for which the IC50 is more than 50 µM in experiment [2], 6.2 µM in experiment [3] and more than 50 µM in experiment [4].

For the compound `COc1ccc2[nH]cc(CCNCCC(=O)Nc3ccc(C)cc3[N+](=O)[O-])c2c1`, the IC50 is more than 50 µM in experiment [2], 14.5 µM in [3] and 48.1 µM in experiment [4].

Take `COc1ccc2[nH]cc(CCNCCC(=O)Nc3ccc(C)cc3N)c2c1`: the half-maximal inhibitory concentration (IC50) in experiment [2], in experiment [3] and in experiment [4] was more than 50 µM throughout.

In the case of `COc1ccc2[nH]cc(CCNCC(C)C(=O)Nc3ccccc3)c2c1` (racemic), the IC50 was more than 50 µM in experiment [2], 9.16 µM in [3] and 37.5 µM in experiment [4].

On to `O=S(=O)(c1ccc(Cl)cc1)C1(S(=O)(=O)c2ccc(Cl)cc2)CC1`, for which the IC50 in experiment [1] was 0.069 µM.

Turning to `COc1ccc2[nH]cc(CCNCC(C)C(=O)Nc3ccc(C)cc3N)c2c1` (racemic), the figures for the 50% inhibitory concentration (IC50) in experiment [2], in experiment [3] and in [4] were more than 50 µM, more than 50 µM and 39.2 µM, respectively.

For `CC(CNCCc1c[nH]c2ccccc12)C(=O)Nc1ccccc1N` (racemic), the values for the IC50 in [2], in experiment [3] and in experiment [4] were more than 50 µM, 4.45 µM and 33.8 µM, respectively.

On to `COc1ccc2[nH]cc(CCNCCC(=O)Nc3ccccc3N)c2c1`, for which the IC50 was found to be 11.2 µM in experiment [2], 4.71 µM in experiment [3] and 16.5 µM in [4].

As to `O=C(Nc1ccc(F)cc1F)N1CCCN(Cc2ccccc2)CC1`, the midpoint of inhibition in [1], the IC50, lay at 0.032 µM.

With `Cc1ccc(NC(=O)CCNCCc2c[nH]c3ccccc23)c(N)c1`, the half-inhibitory concentration (IC50) in experiment [2], in experiment [3] and in experiment [4] was more than 50 µM each time.

As for `CC(CNCCc1c[nH]c2ccccc12)C(=O)Nc1ccccc1` (racemic), the IC50 in experiment [2] stood at 11.4 µM; in [3] it was 3.9 µM; in [4], 7 µM.

As to `O=C(CCNCCc1c[nH]c2ccc(Cl)cc12)Nc1ccccc1`, the inhibition result in [5], in experiment [7], in experiment [10], in experiment [11], in [13] and in experiment [14] was “Active” each time. Moreover, the inhibition entry in [17], in experiment [21], in experiment [22] and in [23] was “Active” throughout. The Activity entry in experiment [6] is “Tde”; in experiment [8], 80.8%; in [9], 0.021%; in experiment [12], “Tde”; in [15], “Tde”; in experiment [16], 92.3%. Also, the Activity in experiment [18] is 23.1%; in experiment [19], “Tde”; in experiment [20], 89.7%. Besides, the figures for the half-inhibitory concentration (IC50) in [2], in [3] and in experiment [4] were 2.12 µM, 1.63 µM and 3.54 µM, respectively.
